Test results reported in patent US20250275993A1, “GLYCOSYLATION INHIBITORS AS THERAPEUTICS FOR STROKE” (The Regents of the University of California, priority 2022, published 2025).

Columns and labels:
[1] = test system: complex N-glycans of BCECs; test: Monosaccharide and sialic acid composition analysis of BCECs; type: cell-based, bovine; settings: fucose 8 hours, mannose 12 hours, galactose 24 hours, Neu5Ac 8 and 24 hours
Description: Monosaccharide composition analysis was done using HPAEC-PAD (Thermo-Dionex ICS3000) and nmole amount of each monosaccharide present in 25 μg of protein was calculated. Samples were hydrolyzed using 2 N trifluoroacetic acid (TFA) at 100° C. for 4 hrs. Followed by removal of acid using dry nitrogen flush. To ensure complete removal of acid, samples were co-evaporated twice with 100 μl of 50% isopropyl alcohol (IPA). Finally, the samples were dissolved in Milli-Q water and injected on HPAEC-PAD. Monosaccharide profile was done using Dionex CarboPac PAI column (250 mm×4 mm; with 50 mm×4 mm guard column). An isocratic solvent mixture of 19 mM sodium hydroxide with 0.95 mM sodium acetate was used at a flow rate of 1 ml per minute for 25 mins. Data were acquired using manufacture supplied standard Quad waveform for carbohydrates. All neutral and amino sugars were identified and quantified by comparing with authentic monosaccharide standard mixture consisting of L-fucose, D-galactosamine, D-glucosamine, D-galactose, D-glucose and D-mannosc. Mild acid hydrolysis was used to release sialic acid. Briefly, samples were treated with 2 M acetic acid at 80° C. for 3 hrs followed by removal of excess acid using speed vacuum. […] Known amount of standard Neu5Ac was used to quantify amount of sialic acid in samples.

human dermal fibroblasts = test: Human dermal fibroblast proliferation assay; type: cell-based; settings: alone or in combination with growth factors
Description: (§1) Proliferation assays with fibroblasts were done in low-glucose DMEM containing 1% FBS, with or without 10 ng/ml bFGF, or 100 ng/ml human EGF and the assay was ended at day 3. ARPE-19 cells were gently lifted with 0.025% trypsin and plated in RtEGM media (Clonetics) containing 2% FBS, L-glutamine, human bFGF and GA-1000. Once cells were attached to plates, serum-free RtEGM media was used to maintain the cultures. For proliferation assays, 1500 human RPE cells were plated into 96-well plates in low-glucose DMEM containing 1% FBS. A673, U87MG, Calu6 and AML12 cells were grown until confluent and were then harvested and re-suspended in appropriate assay media. For proliferation assays, cells were plated at the density of 1000-2000 cells/well in low-glucose DMEM containing 5% FBS or otherwise stated. Bovine pituitary cells (pituitary folliculostellate cells) were isolated as previously described. For proliferation assays with human epidermal keratinocytes, human DMVECs and human dermal fibroblast cells, 1000 cells/well were plated in low-glucose DMEM containing 1% FBS with or without various growth factors. The assay was ended at day 3 for bovine pituitary cells and at day 4 for all the other cell types. […] Four days later, tumor cell growth was measured by the MTS assay (Promega, Madison, WI), a colorimetric assay that measures metabolic activity of viable cells. […]

HUVEC = HUVEC migration assay; type: cell-based, human; settings: 40 μM ManN alone
Description: HUVECs (passage 6-8) were cultured and serum-starved as described in “Western Blots”. Ten thousand cells in […] of EBM-2 medium were then added to the upper chamber of […] pore size cell culture inserts (Falcon) coated with 0.1% gelatin. The lower compartment was filled with […] EBM-2 medium containing various agents. The plates were incubated at 37° C. to allow migration. After 4 hrs, cells were fixed with 4% PFA for 20 min and then stained with crystal violet (Sigma-Aldrich) for 20 min at RT. Migrated cells on the bottom side of the insert membrane were quantified by counting whole area of the insert at 40× magnification. The experiments were carried out in triplicate and repeated three times. BCEC migration was set up similarly, except that wells were coated with FN, cells were suspended in 1% serum media and migration time was 18-24 hrs.

4T1 cells = test: 4T1 proliferation assay (MTS); type: cell-based
U87MG = U87MG proliferation assay; type: cell-based; settings: ManN
Description: as §1

[2] = ManN stability in wound fluid from S. aureus infected mice; type: in vitro ADME, mouse; settings: up to 24 hours at 37° C.
Description: To test ManN stability in wound fluid collected from mice with skin infection as described below, 1.5 μl of 5% ManN solution was added to each 200 μl wound fluid which was first diluted 1:1 (v/v) with PBS. At each time point, samples were taken from 37° C. incubator and stored at −80° C. Plasma proteins were precipitated by adding ice cold acetonitrile to plasma: acetonitrile 1:3 (v/v) ratio. Samples were kept over ice for 1 hr and then centrifuged at 12000 g for 10 min at 7° C. to form a pellet. Supernatants were transferred to other tubed, dried down on a Speed Vac and then reconstituted in UltraPure distilled water and filtered through pre-washed Nanosep 3K Omega filters (Pall Corporation). The filtrate was dried down on Speed Vac. The dry samples were dissolved in 100 μl of water and 2 μl plasma or wound fluid sample was subjected to HPLC analysis. Neutral and amino sugars were separated on a Dionex CarboPac PAI column 4 mm×250 mm with 4 mm×50 mm guard column. An isocratic gradient of 19 mM sodium hydroxide with 0.95 mM sodium acetate was used at a flow rate of 1 ml/min with 20 min run. Data was collected using the Dionex ICS-3000 HPLC system with pulsed amperometric detector using standard Quad waveform. ManN was identified and quantified by comparison with monosaccharide standard using Thermo Scientific Chromeleon software. No ManN samples served as negative controls. […]

## N[C@H](C=O)[C@@H](O)[C@H](O)[C@H](O)CO [ManN, 2-Amino-2-deoxy-D-mannose]
[1]
  fucose, mannose, galactose and Neu5Ac content: significant decrease
Human dermal fibroblasts
  proliferation of human dermal fibroblasts: no increases in proliferation
HUVEC
  HUVEC migration: stimulation of migration and wound closure
4T1 cells; 5 mM
  toxicity on 4T1 cells: significant toxicity
4T1 cells; ManN, MTS
  growth of 4T1: did not promote growth
U87MG
  growth of U87MG: did not promote growth
[2]
  loss of free ManN in wound fluid: No significant loss
